Laboratory results as given in US20140323952A1, “METHODS FOR PROSTATECTOMY” (priority 2011, published 2014).

Legend:
[1] = system: men undergoing robotic radical prostatectomy; assay: Prospective outcome study of robotic radical prostatectomy with phenylephrine infiltration for hemostasis (57 men, IIEF >= 20): continence by pad use, potency by intercourse; assay type: in vivo, human
Protocol: (§1) A group of men who were in need of a prostatectomy were tested. All men undergoing robotic radical prostatectomy after June 2009 were given informed consent regard to and asked to participate in a prospective study of outcomes of robotic radical prostatectomy. Baseline data were obtained preoperatively with regard to sexual and urinary function using self-administered International Index of Erectile Function and International Prostate Symptom Score Questionnaires. Additionally, patients were asked if they had experienced intercourse, urinary incontinence or pad used in the 4 weeks prior to the initial screening visit. Only patients with a pre-operative score on the International Index of Erectile Function of greater than or equal to 20 were included in the post-operative analysis of continence and potency.
(§2) A standard method of prostatectomy was used except that hemostasis was achieved by the infiltration of phenylephrine at a concentration of 100 micrograms per milliliter into the anterior and antero lateral bladder neck (1000 micrograms), right lateral bladder neck (1,000 micrograms), left lateral bladder neck (1,000 micrograms), right prostatic vascular pedicle and neurovascular margin (1,000 micrograms) and left prostatic vascular pedicles and neurovascular margin (1,000 micrograms) for a total of 5,000 micrograms of the agent. Sharp cold dissection was then performed with either the Snap Blade or the Shears with rare spot use of bipolar cautery. Monopolar cautery was not used during any part of the procedure.
Continence was assessed in the post-operative period by pad use with one pad per day or less being considered as “socially continent.” The use of zero pads per day was considered “absolutely continent” Or “complete continence.” The time necessary to achieve each of these milestones was recorded individually for each subject. The end point of sexual recovery was intercourse, and the experience of intercourse was monitored at each post-operative visit. Intercourse was experienced by 21% of men within the 4 weeks prior to initial evaluation. […] Additional follow-up evaluations were done at 8 and 12 weeks post-operative time points. […] Intercourse at the 9 month interval (39 weeks) was established by phone interview in those men not reporting intercourse at the 6 month visit, and for whom interim follow up was not scheduled.
All patients in this study were given informed consent for participation in a prospective study of outcomes of robotic radical prostatectomy. No patients withdrew. Fifty seven (57) men among all patients operated had IIEF scores of 20 or greater. Two patients refused or were lost to follow-up for other reasons. All observations were collected in a prospective fashion and maintained in our IRB approved database of patients having robotic surgery.
Analysis of differences in means was performed by Student's t-test. The differences in proportions were calculated by the Chi-squared test. The probability of return of social continence, absolute continence, and the probability of intercourse was calculated by the Kaplan Meier function.

[2] = system: men undergoing robotic radical prostatectomy; assay: Ongoing study of the 57 subjects plus 23 new subjects (80 men): intercourse and pad use after prostatectomy with phenylephrine infiltration; assay type: in vivo, human; conditions: for Intercourse: reflects use of phosphodiesterase inhibitors
Protocol: as §1, §2
Continence was assessed in the post-operative period by pad use with one pad per day or less being considered as “socially continent.” The use of zero pads per day was considered “absolutely continent” Or “complete continence.” The time necessary to achieve each of these milestones was recorded individually for each subject. The end point of sexual recovery was intercourse, and the experience of intercourse was monitored at each post-operative visit. Intercourse was experienced by 21% of men within the 4 weeks prior to initial evaluation. It is noteworthy that two (2) weeks lapsed between the surgery and the removal of the urinary catheter, thus the initial evaluation of sexual function occurred 2 weeks following removal of the catheter, or 4 weeks following surgery. Additional follow-up evaluations were done at 8 and 12 weeks post-operative time points. […] Intercourse at the 9 month interval (39 weeks) was established by phone interview in those men not reporting intercourse at the 6 month visit, and for whom interim follow up was not scheduled.
An ongoing study of the 57 subjects described above as well as an additional 23 new subjects was also performed.

[3] = 2 weeks postoperative, 57 patients
[4] = 4 weeks postoperative, 57 patients
[5] = 6 weeks postoperative, 57 patients
[6] = 8 weeks postoperative, 56 patients
[7] = 12 weeks postoperative, 55 patients
[8] = 26 weeks postoperative, 46 patients
[9] = 39 weeks postoperative, 38 patients
[10] = 52 weeks postoperative, 37 patients
[11] = 78 weeks postoperative, 23 patients
[12] = 12 weeks (3 mos) post op, 77 patients
[13] = 26 weeks (6 mos) post op, 71 patients
[14] = 39 weeks (9 mos) post op, 63 patients
[15] = 52 weeks (12 mos) post op, 53 patients
[16] = 78 weeks (1.5 yrs) post op, 30 patients
[17] = 104 weeks (2.0 yrs) post op, 14 patients
[18] = within about 52 weeks following surgery, FIG. 4

CNC[C@H](O)c1cccc(O)c1 [phenylephrine] was tested, and the “Complete Continence Number (%)” value [1, 3] was 10 (18%) Number (%), the “Potency Number (%)” value [1, 3] was 7 (12%) Number (%) and the “Social Continence Number (%)” value ([1]; 2 weeks postoperative, 57 patients, 5,000 micrograms phenylephrine infiltrated) was 20 (35%) Number (%). The “Complete Continence Number (%)” value [1, 4] was 17 (30%) Number (%), the “Potency Number (%)” value [1, 4] was 12 (21%) Number (%) and the “Social Continence Number (%)” value [1, 4] was 31 (54%) Number (%). For the same compound, the “Complete Continence Number (%)” value [1, 5] was 16 (28%) Number (%), the “Potency Number (%)” value [1, 5] was 14 (25%) Number (%) and the “Social Continence Number (%)” value [1, 5] was 32 (56%) Number (%). For the same compound, the “Complete Continence Number (%)” value [1, 6] was 17 (30%) Number (%), the “Potency Number (%)” value [1, 6] was 15 (27%) Number (%) and the “Social Continence Number (%)” value [1, 6] was 33 (58%) Number (%). The “Complete Continence Number (%)” value [1, 7] was 20 (36%) Number (%), the “Potency Number (%)” value [1, 7] was 23 (42%) Number (%) and the “Social Continence Number (%)” value [1, 7] was 40 (73%) Number (%). For the same compound, the “Complete Continence Number (%)” value [1, 8] was 26 (57%) Number (%), the “Potency Number (%)” value [1, 8] was 24 (52%) Number (%) and the “Social Continence Number (%)” value [1, 8] was 40 (87%) Number (%). The “Complete Continence Number (%)” value [1, 9] was 24 (63%) Number (%), the “Potency Number (%)” value [1, 9] was 20 (53%) Number (%) and the “Social Continence Number (%)” value [1, 9] was 34 (89%) Number (%). For the same compound, the “subjects at risk with social continence” value ([1]; 52-week mark, Kaplan Meier plot FIG. 1) was 100%, the “Complete Continence Number (%)” value [1, 10] was 35 (95%) Number (%) and the “Potency Number (%)” value [1, 10] was 34 (92%) Number (%). For the same compound, the “Social Continence Number (%)” value [1, 10] was 37 (100%) Number (%), the “subjects with complete continence” value ([1]; 78-week time point, Kaplan Meier plot FIG. 2) was 100% and the potency following surgery ([1]; 78-week time point, Kaplan Meier plot FIG. 3) was “Complete potency was achieved”. For the same compound, the “Complete Continence Number (%)” value [1, 11] was 23 (100%) Number (%), the “Potency Number (%)” value [1, 11] was 23 (100%) Number (%) and the “Social Continence Number (%)” value [1, 11] was 23 (100%) Number (%). The “Potency Number (%)” value ([1]; week 0 (pre-surgical baseline), 57 patients, intercourse) was 51 (89%) Number (%), the “Social Continence Number (%)” value ([1]; week 0 (pre-surgical baseline), 57 patients, one pad per day or less) was 57 (100%) Number (%) and the “Complete Continence Number (%)” value ([1]; week 0 (pre-surgical baseline), 57 patients, zero pads per day) was 57 (100%) Number (%). For the same compound, the “men who experienced intercourse” value ([1]; within the 4 weeks prior to initial evaluation (4 weeks following surgery)) was 21%, the “One or less pad per 24 hours” value ([2]; 2 weeks post op, 79 patients) was 32% and the “Zero Pads per 24 hours” value ([2]; 2 weeks post op, 79 patients) was 18%. For the same compound, the Intercourse ([2]; 2 weeks post op, 79 patients) was 10%, the “One or less pad per 24 hours” value ([2]; 4 weeks post op, 78 patients) was 49% and the “Zero Pads per 24 hours” value ([2]; 4 weeks post op, 78 patients) was 28%. For the same compound, the Intercourse ([2]; 4 weeks post op, 78 patients) was 19%, the “One or less pad per 24 hours” value ([2]; 6 weeks post op, 77 patients) was 58% and the “Zero Pads per 24 hours” value ([2]; 6 weeks post op, 77 patients) was 27%. The Intercourse ([2]; 6 weeks post op, 77 patients) was 25%, the “One or less pad per 24 hours” value ([2]; 8 weeks post op, 77 patients) was 60% and the “Zero Pads per 24 hours” value ([2]; 8 weeks post op, 77 patients) was 28%. The Intercourse ([2]; 8 weeks post op, 77 patients) was 27%, the “One or less pad per 24 hours” value [2, 12] was 73% and the “Zero Pads per 24 hours” value [2, 12] was 36%. The Intercourse [2, 12] was 42%, the “One or less pad per 24 hours” value [2, 13] was 89% and the “Zero Pads per 24 hours” value [2, 13] was 52%. The Intercourse [2, 13] was 58%, the “One or less pad per 24 hours” value [2, 14] was 92% and the “Zero Pads per 24 hours” value [2, 14] was 65%. For the same compound, the Intercourse [2, 14] was 67%, the “One or less pad per 24 hours” value [2, 15] was 100% and the “Zero Pads per 24 hours” value [2, 15] was 85%. For the same compound, the Intercourse [2, 15] was 83%, the “One or less pad per 24 hours” value [2, 16] was 100% and the “Zero Pads per 24 hours” value [2, 16] was 83%. The Intercourse [2, 16] was 77%, the “One or less pad per 24 hours” value [2, 17] was 100% and the “Zero Pads per 24 hours” value [2, 17] was 93%. The Intercourse [2, 17] was 93%, the “time within which social continence was achieved for all subjects” value ([2]; following surgery, FIG. 4) was ≤ 52 weeks and the “One or less pad per 24 hours” value ([2]; week 0 (Pre Op), 80 patients) was 100%. The “Zero Pads per 24 hours” value ([2]; week 0 (Pre Op), 80 patients) was 99%, the Intercourse ([2]; week 0 (Pre Op), 80 patients) was 90% and the “subjects achieving absolute continence” value [2, 18] was “more than 80%”. For the same compound, the “subjects achieving sexual function (intercourse)” value [2, 18] was “about 80%”.
